# Assay results from article PMC6756013, “B591, a novel specific pan-PI3K inhibitor, preferentially targets cancer stem cells” (Oncogene, 2019).
# Key:
# [1] = test system: ALDHhigh fractions in SUM-159PT cells; assay: ALDH activity assay (ALDEFLUOR); assay type: cell-based; conditions: 4 µM
# Method: Cells were treated with B591 for 24 h, then the cell suspension was incubated with 20 μl of CD44-APC (#559942, BD Pharmingen, Franklin Lakes, NJ, USA) and 20 μl of CD24-PE (#555428, BD Pharmingen) antibodies for 30 min in dark at 4 ℃. Phenotype was detected by BD FACSCalibur, and data was analyzed with Flowjo. ALDH activity was analyzed with ALDEFLUOR Kit (STEMCELL Technologies, Vancouver, BC, Canada) according to the manufacture’s protocol.
# SUM-159PT cells = assay: Mammosphere formation after paclitaxel pre-treatment; assay type: cell-based; conditions: 8 nM Paclitaxel or 8 nM Paclitaxel plus 5 μM B591 for 24 h
# Method: Fig. 6 B591 reduces breast tumor metastasis and recurrence. a Representative images show the effect of B591 (8 mg/kg) on lung metastasis of 4T1 cells, and data from six mice were plotted. b SUM-159PT cells were respectively treated with the indicated agents (8 nM Paclitaxel, 8 nM Paclitaxel plus 5 μM B591) for 24 h, the cells were then cultured for mammospheres. Representative images were shown, and data from two independent experiments were plotted. c–f SUM-159PT xenografts (n = 7) were treated with 4 mg/kg Paclitaxel, or 10 mg/kg B591, or both for 2 weeks, then ended the treatment and waited for tumor recurrence. Tumor volume (c) and body weight (d) were measured every 2 days after treatment, and tumors were photographed (e) and weighted (f) at the end of the experiment. ^*p < 0.05, ^**p < 0.01 versus indicated groups
# Based on the finding that B591 preferentially targets CSCs, we supposed that by eliminating the breast CSCs, B591 might delay breast tumor recurrence after initial treatment with chemotherapy drugs. Paclitaxel is a first-line chemotherapeutic agent used for breast cancer therapy. SUM-159PT cells were pre-treated with paclitaxel, and then the cells remaining alive were cultured for mammospheres.
# MDA-MB-231 cells = assay: Cell cycle analysis; assay type: cell-based, human; conditions: 24 h
# Method: MDA-MB-231 cells were seeded in six-well plates at a density of 4×10^5 cells per well. The next day, cells were treated with B591 (0, 2.5, 5, 10 μM) for 24 h. Then the cells were trypsinized, centrifuged at 300 g for 5 minutes and fixed in 1 ml of 70 % cold ethanol. After incubation at -20℃ overnight, the cells were collected by centrifugation at 500 g for 5 min and pellets were resuspended in 500 μl PBS containing 300 μg/ml of RNase (Sigma, MO, USA). After incubation at 37 ℃ for 30 min, the pellets were stained with 100 μg/ml of propidium iodine (Sigma, MO, USA) for 20 min. Cell cycle distribution was determined by flow cytometry (FACScaliber, Becton Dickinson).
# [2] = test system: CHO cells stably expressing EGFP-Akt1; assay: Akt1 redistribution (IGF-1-stimulated membrane translocation of EGFP-Akt1); assay type: cell-based
# Source text: Growth factors such as insulin-like growth factor 1 (IGF-1) and cytokines such as interleukin-6 stimulate and activate PI3K, leading to a subsequent increase of plasma membrane translocation and phosphorylation of Akt. Activated Akt promotes cell survival, cell growth and proliferation in human cancers.
# Fig. 2 B591 inhibits PI3K/Akt pathway in multiple cancer cell lines. a Representative images of Akt1 redistribution in IGF-1-treated cells in the absence or presence of B591. Scale bar represents 10 μm. Arrows indicate IGF-1-mediated membrane translocation detected by the image analysis algorithm. b Inhibition of mTORC1 and mTORC2 signaling in multiple cancer cell lines, exposed for 5 h to increasing concentrations of B591. c HepG2 cells were treated with DMSO or 20 μM of B591 for 5 h. Immunofluorescence (red) intensity reflects eIF4E subcellular distribution. Cells were visualized with high content reader. Representative images are shown, and scale bar represents 50 μm. d Nuclear-to-cytoplasmic ratio of eIF4E in five cancer cell lines was determined via high content reader. e The phosphorylation of AKT and ERK was determined by immunoblotting in RD cells in the presence of 10 μM of B591 after indicated time of exposure. f Inhibition of the phosphorylation of AKT and ERK in RD cells treated with B591, PI-103 or Rapamycin for 24 h was determined by immunoblotting […]
smiles,measurement,setting,value
"Cc1cc2c(cc1C)[n+](Cc1ccccc1Br)cn2Cc1ccc2c(c1)CCO2.[Br-] [B591, 3-(2-bromobenzyl)-1-((2,3-dihydrobenzofuran-5-yl)methyl) -5,6-dimethyl-1H-benzo[d]imidazol-3-ium bromide]",Reduction of ALDHhigh fractions,[1],90%
same,Formation of mammospheres / paclitaxel-enriched CSCs,SUM-159PT cells,the paclitaxel-enriched CSCs were effectively eliminated
same,Cell cycle distribution,MDA-MB-231 cells,effectively arrested cells in G0/G1 phase
same,IGF-1-stimulated translocation of Akt to the plasma membrane,[2],potently prevented this translocation event in a concentration-dependent manner
